{"source": "patent US10034824B2", "about": "“Hair shaping composition” (Conopco, Inc., priority 2014, dated 2018)", "test": "Hair switch volume-down test (switches dosed, combed straight, dried overnight, imaged)", "experimental": "Dark brown European wavy#6 switches of length 25 cm and weight 2 gms (from the same batch of switches), were dosed with 0.2 ml of a 2% solution of monoglucosamine adipate. Control switches were treated with water.\nAll switches were combed straight and left to dry overnight.\nWhen dry the switches were combed straight and pictures taken. […] The percentage benefit (i.e. decrease in volume) with respect to control (water) is also given.", "key": {"[1]": {"conditions": "0.2 ml of a 2% solution on 25 cm, 2 gms switches, combed straight, dried overnight"}}, "data": [{"substance": "monoglucosamine adipate", "values": [{"measurement": "% benefit (decrease in volume with respect to control (water))", "setting": "[1]", "value": 8.0, "unit": "%"}, {"measurement": "Volume (projection of the switch image on to the screen)", "setting": "[1]", "value": 13047, "unit": "mm^2"}, {"measurement": "hair volume-down benefit", "setting": "2% solution vs water control, result in words", "value": "significant hair volume-down benefit"}]}]}
